Results published in ChEMBL document CHEMBL5042472, “Design, Synthesis, and Biological Evaluation of a Novel Photocaged PI3K Inhibitor toward Precise Cancer Treatment” (J Med Chem, 2021).
Calls of active or inactive are those of the source. No cut-off for these calls is given here.

What was measured:
HGC-27 [1] = assay: Inhibition of colony formation in human HGC-27 cells at 100 nM incubated for 24 hrs by crystal violet staining based assay; format: functional, cell-based
HCT-116 [2] = assay: Induction of apoptosis in human HCT-116 cells assessed as increase in number of cells in sub-G0 phase at 100 nM incubated for 24 hrs by flow cytometry; format: functional, cell-based
HCT-116 [3] = assay: Inhibition of PI3K/AKT signalling pathway in human HCT-116 cells assessed as downregulation of AKT phosphorylation at […] residue at 100 nM incubated for 24 hrs under dark condition by Western blot; format: cell-based
[4] = target: Phosphatidylinositol 4,5-bisphosphate 3-kinase catalytic subunit alpha isoform (Homo sapiens, UniProt P42336); assay: Inhibition of PI3K alpha (unknown origin) using PIP2 as substrate irradiated with 365 nm of UV exposure for 2 mins and incubation in dark at room temperature for 1 hr in presence of ATP measured by ADP-Glo luminescent assay
Phosphatidylinositol 4,5-bisphosphate 3-kinase catalytic subunit alpha isoform, sequence (P42336 whole entry, canonical isoform): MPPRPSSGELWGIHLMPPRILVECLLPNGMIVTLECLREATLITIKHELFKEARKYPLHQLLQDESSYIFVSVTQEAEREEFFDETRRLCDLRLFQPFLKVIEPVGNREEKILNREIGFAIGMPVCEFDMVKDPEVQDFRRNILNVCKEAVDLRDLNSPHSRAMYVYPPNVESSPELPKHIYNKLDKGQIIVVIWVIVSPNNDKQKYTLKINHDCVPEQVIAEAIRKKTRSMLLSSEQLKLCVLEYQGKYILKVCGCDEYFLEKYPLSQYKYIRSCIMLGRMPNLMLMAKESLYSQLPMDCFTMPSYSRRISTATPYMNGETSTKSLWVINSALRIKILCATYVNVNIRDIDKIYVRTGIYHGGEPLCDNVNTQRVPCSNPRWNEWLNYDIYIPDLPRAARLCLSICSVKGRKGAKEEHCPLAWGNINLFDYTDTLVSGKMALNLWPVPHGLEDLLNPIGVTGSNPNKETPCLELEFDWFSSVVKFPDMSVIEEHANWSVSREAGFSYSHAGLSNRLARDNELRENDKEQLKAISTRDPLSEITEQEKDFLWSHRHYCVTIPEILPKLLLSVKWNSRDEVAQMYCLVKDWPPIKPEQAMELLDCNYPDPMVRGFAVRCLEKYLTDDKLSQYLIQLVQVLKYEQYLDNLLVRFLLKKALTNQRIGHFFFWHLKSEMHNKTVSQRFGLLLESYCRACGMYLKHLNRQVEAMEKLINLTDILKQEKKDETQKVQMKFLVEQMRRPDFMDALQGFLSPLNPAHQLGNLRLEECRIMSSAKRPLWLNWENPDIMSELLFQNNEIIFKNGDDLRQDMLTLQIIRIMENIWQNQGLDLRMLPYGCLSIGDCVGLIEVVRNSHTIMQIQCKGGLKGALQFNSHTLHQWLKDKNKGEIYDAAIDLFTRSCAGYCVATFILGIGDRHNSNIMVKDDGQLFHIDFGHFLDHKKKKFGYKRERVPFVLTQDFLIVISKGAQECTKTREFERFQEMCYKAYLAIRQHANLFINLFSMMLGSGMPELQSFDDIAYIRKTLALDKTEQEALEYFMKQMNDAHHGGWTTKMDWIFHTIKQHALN

HGC-27 [5] = assay: Inhibition of colony formation in human HGC-27 cells irradiated with 365 nm of UV light for 5 min at 100 nM incubated for 24 hrs by crystal violet staining based assay; format: functional, cell-based
MGC-803 [6] = assay: Antiproliferative activity against human MGC-803 cells assessed as reduction in cell viability incubated in dark for 96 hrs by MTT assay; format: functional, cell-based; conditions: MGC-803, 96 h
HGC-27 [7] = assay: Inhibition of PI3K/AKT signalling pathway in human HGC-27 cells assessed as downregulation of AKT phosphorylation at […] residue at 100 nM irradiated with 365 nm UV light for 5 mins and incubated for 24 hrs by Western blot; format: cell-based
HGC-27 [8] = assay: Antiproliferative activity against human HGC-27 cells assessed as reduction in cell viability incubated in dark for 96 hrs by MTT assay; format: functional, cell-based; conditions: HGC-27, 96 h
[9] = target: Phosphatidylinositol 4,5-bisphosphate 3-kinase catalytic subunit gamma isoform (Homo sapiens, UniProt P48736); assay: Inhibition of PI3K gamma (unknown origin) using PIP2 as substrate incubated in dark at room temperature for 1 hr in presence of ATP by ADP-Glo luminescent assay
Phosphatidylinositol 4,5-bisphosphate 3-kinase catalytic subunit gamma isoform, sequence (P48736 whole entry, canonical isoform): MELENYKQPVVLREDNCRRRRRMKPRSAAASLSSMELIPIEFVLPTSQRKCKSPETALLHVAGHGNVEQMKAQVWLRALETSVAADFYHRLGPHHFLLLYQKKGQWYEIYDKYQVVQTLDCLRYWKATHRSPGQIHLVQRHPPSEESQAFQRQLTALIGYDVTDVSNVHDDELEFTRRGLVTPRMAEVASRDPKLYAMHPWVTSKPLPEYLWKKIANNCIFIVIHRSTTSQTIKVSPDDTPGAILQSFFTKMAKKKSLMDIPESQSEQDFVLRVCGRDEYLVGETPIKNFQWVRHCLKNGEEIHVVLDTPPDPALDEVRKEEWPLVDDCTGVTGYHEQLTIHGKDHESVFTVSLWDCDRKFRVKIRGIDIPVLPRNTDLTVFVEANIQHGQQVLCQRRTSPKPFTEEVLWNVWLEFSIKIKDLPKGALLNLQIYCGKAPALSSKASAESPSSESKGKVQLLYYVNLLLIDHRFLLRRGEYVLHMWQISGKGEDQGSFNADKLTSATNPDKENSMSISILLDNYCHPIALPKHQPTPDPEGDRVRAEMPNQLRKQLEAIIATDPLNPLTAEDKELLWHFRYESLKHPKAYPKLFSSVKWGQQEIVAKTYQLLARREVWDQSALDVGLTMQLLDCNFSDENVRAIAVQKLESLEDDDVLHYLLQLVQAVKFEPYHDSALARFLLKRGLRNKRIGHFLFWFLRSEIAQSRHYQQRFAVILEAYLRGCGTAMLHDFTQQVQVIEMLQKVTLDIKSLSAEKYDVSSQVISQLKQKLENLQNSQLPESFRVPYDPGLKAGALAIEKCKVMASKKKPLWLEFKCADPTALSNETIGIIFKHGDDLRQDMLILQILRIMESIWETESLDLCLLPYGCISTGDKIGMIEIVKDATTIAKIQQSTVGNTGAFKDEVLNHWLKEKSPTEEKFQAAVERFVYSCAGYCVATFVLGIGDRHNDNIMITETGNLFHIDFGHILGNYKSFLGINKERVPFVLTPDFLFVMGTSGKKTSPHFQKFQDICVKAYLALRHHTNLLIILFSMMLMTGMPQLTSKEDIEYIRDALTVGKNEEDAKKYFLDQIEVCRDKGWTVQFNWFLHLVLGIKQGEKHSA

[10] = Photo stability of compound assessed as release of 2,4-difluoro-N-(2-methoxy-5-(4-methyl-8-(tetrahydro-2H-pyran-4-yloxy)quinazolin-6-yl)pyridin-3-yl)benzenesulfonamide by measuring half life irradiated with 365 nm of UV for 5 min measured by HPLC analysis; format: physicochemical
BGC-823 = assay: Antiproliferative activity against human BGC-823 cells assessed as reduction in cell viability irradiated with 365 nm of UV for 5 mins and incubated in dark for 96 hrs by MTT assay; format: functional, cell-based; conditions: BGC-823, light or radiation study
HCT-116 [11] = assay: Inhibition of colony formation in human HCT-116 cells at 100 nM incubated for 24 hrs by crystal violet staining based assay; format: functional, cell-based
MGC-803 [12] = assay: Antiproliferative activity against human MGC-803 cells assessed as reduction in cell viability irradiated with 365 nm of UV for 5 mins and incubated in dark for 96 hrs by MTT assay; format: functional, cell-based; conditions: MGC-803, light or radiation study
HCT-116 [13] = assay: Inhibition of PI3K/AKT signalling pathway in human HCT-116 cells assessed as downregulation of AKT phosphorylation at […] residue at 100 nM irradiated with 365 nm UV light for 5 mins and incubated for 24 hrs by Western blot; format: cell-based
[14] = Stability in rat liver microsomes assessed as half life at 1 uM in presence of NADPH by LC-MS/MS analysis; format: ADME, Microsome
Homo sapiens [15] = organism: Homo sapiens; assay: Anticancer activity against KOCO-096 patient derived colon cancer organoid assessed as inhibition of cell growth irradiated with 365 nm of UV light for 2 mins and incubated for 120 hrs; format: functional, tissue-based
AGS = assay: Antiproliferative activity against human AGS cells assessed as reduction in cell viability irradiated with 365 nm of UV for 5 mins and incubated in dark for 96 hrs by MTT assay; format: functional, cell-based; conditions: light or radiation study
[16] = Plasma protein binding in rat at 1 uM by LC-MS/MS analysis; format: ADME, cell-free; conditions: read-out: PPB (converted)
[17] = Apparent permeability across apical to basolateral side in human Caco-2 cells at 10 uM incubated for 2 hrs by LC-MS/MS analysis; format: ADME, cell-based
HCT-116 [18] = assay: Inhibition of PI3K/AKT signalling pathway in human HCT-116 cells assessed as downregulation of AKT phosphorylation at Ser473 residue at 100 nM irradiated with 365 nm UV light for 5 mins and incubated for 24 hrs by Western blot; format: cell-based
[19] = Plasma protein binding in dog at 1 uM by LC-MS/MS analysis; format: ADME, cell-free, Canis lupus familiaris; conditions: read-out: PPB (converted)
Homo sapiens [20] = organism: Homo sapiens; assay: Anticancer activity against KOCO-096 patient derived colon cancer organoid assessed as inhibition of cell growth irradiated with 365 nm of UV light for 5 mins and incubated for 120 hrs; format: functional, tissue-based
Homo sapiens [21] = organism: Homo sapiens; assay: Anticancer activity against KOES-007 patient derived stomach cancer organoid assessed as inhibition of cell growth irradiated with 365 nm of UV light for 5 mins and incubated for 120 hrs; format: functional, tissue-based
HCT-116 [22] = assay: Inhibition of PI3K/AKT signalling pathway in human HCT-116 cells assessed as downregulation of […] phosphorylation at 100 nM incubated for 24 hrs under dark condition by Western blot; format: cell-based
HGC-27 [23] = assay: Inhibition of PI3K/AKT signalling pathway in human HGC-27 cells assessed as downregulation of SRP6 phosphorylation at 100 nM incubated for 24 hrs under dark condition by Western blot; format: cell-based
HCT-116 [24] = assay: Inhibition of PI3K/AKT signalling pathway in human HCT-116 cells assessed as downregulation of […] phosphorylation at 100 nM irradiated with 365 nm UV light for 5 mins and incubated for 24 hrs by Western blot; format: cell-based
HGC-27 [25] = assay: Inhibition of PI3K/AKT signalling pathway in human HGC-27 cells assessed as downregulation of AKT phosphorylation at Ser473 residue at 100 nM incubated for 24 hrs under dark condition by Western blot; format: cell-based

IC50 [4]: 0.58 nM
IC50 (MGC-803 [6]): 1740 nM
IC50 [9]: 4470 nM
t1/2 [10]: 5 min
IC50 (BGC-823): 103 nM
IC50 (MGC-803 [12]): 329 nM
half-life at 1 µM [14]: 1.82 min
IC50 (AGS): 70.3 nM
fraction unbound at 1 µM [16]: 0.006
Papp A→B at 2 h, 10 µM [17]: 0.49 ×10⁻⁶ cm/s
fraction unbound at 1 µM [19]: 0.005
SMILES: COc1cc(CN(c2cc(-c3cc(OC4CCOCC4)c4ncnc(C)c4c3)cnc2OC)S(=O)(=O)c2ccc(F)cc2F)c([N+](=O)[O-])cc1OC
inhibition (HGC-27 [1]): inactive
inhibition (HCT-116 [2]): Active
inhibition (HCT-116 [3]): inactive
inhibition (HGC-27 [5]): Active
inhibition (HGC-27 [7]): Active
IC50 (HGC-27 [8]): 248 nM
inhibition (HCT-116 [11]): inactive
inhibition (HCT-116 [13]): Active
Activity (Homo sapiens [15]): Active
inhibition (HCT-116 [18]): Active
Activity (Homo sapiens [20]): Dose-Dependent Effect
Activity (Homo sapiens [21]): Dose-Dependent Effect
inhibition (HCT-116 [22]): inactive
inhibition (HGC-27 [23]): inactive
inhibition (HCT-116 [24]): Active
inhibition (HGC-27 [25]): inactive
